Laboratory results taken from patent US20240336566A1, “CRYSTALLINE FORMS OF A COMPOUND FOR THE TARGETED DEGRADATION OF THE ANDROGEN RECEPTOR” (Arvinas Operations, Inc., priority 2023, published 2024).

Legend:
[1] = Co-crystal screen: XRPD post temperature cycling and post storage at 40° C./75% RH;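 on XRPD results, primary co-crystal screen post temperature cycling: value is the Compound A free base XRPD pattern number and 9 means a potential new one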; type: physicochemical; details: Compound A + 1.05 eq. co-former (= label)
[2] = Primary salt screen: XRPD post temperature cycling/evaporation, post drying and post storage at 40° C./75% RH; type: physicochemical; details: Compound A + 1.05 eq. counterion (= label); for XRPD results post 40° C./75% RH: stored ca. 20 hours
Procedure: • 30 mg samples of Compound A were weighed out into 2 mL screw cap sample vials for 96 experiments. To these, 200 μL of the appropriate solvent system was added to dissolve the material or form a slurry. See Table 16 for the solvent systems selected for the primary salt screen.
• 1.05 eq. of solid counterions were weighed into six separate vials each and 1 molar stock solutions were prepared for liquid counterions in 5 mL of THF. See Table 17 for selected counterions and mass/volume needed for 1.05 eq. additions. • 100 μL of the appropriate solvent was added to the solid counterions.
The solution/slurry of counterion was added to the solution/slurry of the free base material.
• The samples were placed in an incubator shaker to temperature cycle between ambient and 40° C. over 4 hour cycles. • After ca. 72 hours of temperature cycling, observations were noted, see Table 19.
• Where slurries were obtained, the solids were isolated via centrifugation. Solids and gels were analyzed by XRPD.
Any samples that were clear solutions after temperature cycling were left to evaporate at ambient conditions. See Table 20 for observations made after evaporation. Solids obtained through evaporation were analyzed by XRPD.
• The samples obtained from temperature cycling were dried under vacuum at 40° C. for ca. 20 hours while the samples obtained from evaporation were dried under vacuum at 40° C. for ca. 4 hours. […]

| XRPD results, primary co-crystal screen post storage at 40° C./75% RH ([1]; 1,4-Dioxane) | XRPD results, primary co-crystal screen post temperature cycling ([1]; 1,4-Dioxane) | XRPD results, primary co-crystal screen post storage at 40° C./75% RH ([1]; DCM:Methanol (50:50 % v/v)) | XRPD results, primary co-crystal screen post temperature cycling ([1]; DCM:Methanol (50:50 % v/v)) | XRPD results, primary co-crystal screen post storage at 40° C./75% RH ([1]; THF) | XRPD results, primary co-crystal screen post temperature cycling ([1]; THF) | Structure (SMILES) | also measured |
| --- | --- | --- | --- | --- | --- | --- | --- |
| 4 | 9 | 2 | 2 | 1 | 1 | N[C@@H](Cc1c[nH]cn1)C(=O)O [L-Histidine] |  |
| 4 | 9 |  |  |  |  | N[C@@H](Cc1ccccc1)C(=O)O [L-Phenylalanine] |  |
| 4 | 9 | 2 | 2 | 1 | 1 | O=C(O)[C@@H]1CCCN1 [L-Proline] |  |
| 4 | 9 | 2 | 2 |  |  | N[C@@H](Cc1ccc(O)cc1)C(=O)O [L-Tyrosine] |  |
|  |  | 1 | 1 | 1 | 1 | COC(=O)c1ccc(O)cc1 [Methylparaben] |  |
| 4 | 4 | 2 | 2 | 1 | 1 | NC(=O)c1cccnc1 [Nicotinamide] | XRPD results, primary co-crystal screen post storage at 40° C./75% RH ([1]; DMSO:Water (50:50 % v/v)): 2; XRPD results, primary co-crystal screen post temperature cycling ([1]; DMSO:Water (50:50 % v/v)): 2 |
|  |  |  |  |  |  | O=P(O)(O)O [Phosphoric acid] | XRPD results post temperature cycling and evaporation ([2]; 1,4-Dioxane): A t; XRPD results post drying ([2]; 1,4-Dioxane, dried under vacuum at 40° C.): A t; XRPD results post 40° C./75% RH ([2]; 1,4-Dioxane): A t; XRPD results post temperature cycling and evaporation ([2]; DCM): S t *; XRPD results post temperature cycling and evaporation ([2]; DCM:Methanol (50:50 % v/v)): S t *; XRPD results post 40° C./75% RH ([2]; DCM): A t h; XRPD results post temperature cycling and evaporation ([2]; THF): S t; XRPD results post temperature cycling and evaporation ([2]; THF:Water (98:2 % v/v)): S t |

| Structure (SMILES) | XRPD results, primary co-crystal screen post storage at 40° C./75% RH ([1]; 1,4-Dioxane) | XRPD results, primary co-crystal screen post temperature cycling ([1]; 1,4-Dioxane) | XRPD results, primary co-crystal screen post storage at 40° C./75% RH ([1]; DCM:Methanol (50:50 % v/v)) | XRPD results, primary co-crystal screen post temperature cycling ([1]; DCM:Methanol (50:50 % v/v)) | XRPD results, primary co-crystal screen post storage at 40° C./75% RH ([1]; THF) | XRPD results, primary co-crystal screen post temperature cycling ([1]; THF) | also measured |
| --- | --- | --- | --- | --- | --- | --- | --- |
| N[C@@H](Cc1c[nH]c2ccccc12)C(=O)O [L-Tryptophan] |  |  |  | 2 |  |  |  |
